# Results taken from patent publication US20110172230A1, “UREA COMPOUND OR SALT THEREOF” (priority 2006, published 2011).
# Counter-ions that a name gives are not always drawn.
# Target: T1, FAAH (Homo sapiens, UniProt O00519)
# T1 construct: host or cells: 5637 human bladder epithelial cancer-derived cells, not transfected
# T1 sequence (O00519 1-579): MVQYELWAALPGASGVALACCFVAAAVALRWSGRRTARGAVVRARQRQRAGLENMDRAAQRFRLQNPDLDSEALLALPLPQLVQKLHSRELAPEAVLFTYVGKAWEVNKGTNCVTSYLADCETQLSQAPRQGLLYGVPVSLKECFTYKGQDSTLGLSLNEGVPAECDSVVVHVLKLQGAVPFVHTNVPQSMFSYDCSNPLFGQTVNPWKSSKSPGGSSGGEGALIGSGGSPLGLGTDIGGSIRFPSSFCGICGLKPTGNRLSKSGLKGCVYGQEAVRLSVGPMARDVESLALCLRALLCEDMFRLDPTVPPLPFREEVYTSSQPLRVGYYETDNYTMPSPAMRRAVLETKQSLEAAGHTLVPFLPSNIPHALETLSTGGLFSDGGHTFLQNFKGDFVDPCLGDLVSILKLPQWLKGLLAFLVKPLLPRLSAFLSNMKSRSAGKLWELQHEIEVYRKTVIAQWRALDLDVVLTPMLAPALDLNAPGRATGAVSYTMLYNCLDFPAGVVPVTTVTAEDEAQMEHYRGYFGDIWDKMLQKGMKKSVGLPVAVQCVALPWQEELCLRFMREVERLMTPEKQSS
# Experiment: Screening for an FAAH activity-inhibiting substance with human bladder epithelial cancer-derived cell line 5637 cells (IC50)
# Assay type: cell-based
# Settings: FAAH activity in human bladder epithelial cancer-derived 5637 cells, 37° C., 30 minutes
# Description: Screening for an FAAH Activity-Inhibiting Substance with a Human Bladder Epithelial Cancer-Derived Cell
# (1) Screening for an FAAH Activity Inhibiting Substance
# Human bladder epithelial cancer-derived cell line 5637 cells (HTB-9; ATCC) were seeded on a 48-well cell culture plate in an amount of 1×10^5 cell/well, using 10% fetal bovine serum (HyClone)-containing RPMI1640 medium (Invitrogen Corporation). After incubated at 37° C. for 12 hours or longer, the cells were washed with 400 μl/well of a buffer (Hank's Balanced Salt Solution, 20 mM Hepes-NaOH (pH 7.4)). A test substance dissolved in DMSO was added to a substrate solution (the above buffer containing 3 μCi/ml radiolabeled anandamide (Anandamide [ethanolamine 1-^3H]) and 10 μM anandamide) so as to have a concentration from 0.003 nM to 30 nM. As a control, DMSO alone was added. 100 μl/well of the substrate solution was added to the above cells, and incubated in a CO2 incubator at 37° C. for 30 minutes. Next, the cell culture plate was transferred onto ice, and the substrate solution was removed by suction; and 75 μl/well of a cytolytic solution (the above buffer containing 0.5% Triton X-100, and 10 μM of FAAH-inhibitory activity-having compound, 3′-carbamoylbiphenyl-3-yl ester (URB597; Cayman chemical; Kathuria et al., Nature Med., Vol. 9, pp. 76-81, 2003)) was added thereto, followed by stirring. The resulting cell lysate in every well was individually transferred into a 1.5 ml sample tube, to which was added 150 μl of 1:1 (ratio by volume) chloroform/methanol solution, followed by vortexing. This was centrifuged (15000 rpm, 2 minutes), whereby the decomposed product, ethanolamine (ethanolamine 1-^3H) was separated in the upper layer (water/methanol layer) and the unreacted radiolabeled anandamide was in the lower layer (chloroform layer). 25 μl of the upper layer was transferred into a 96-well organic solvent-resistant white microplate (PicoPlate-96; Perkin Elmer, Inc.), 150 μl of Microscint-20 (Perkin Elmer, Inc.) was added thereto, and this was measured with a microplate scintillation counter (TopCount™; Beckman Coulter, Inc.). As compared with the control, the substance that gave a decreased value was selected as an FAAH activity-inhibiting substance.
# (2) Measurement of the IC50 Value of the FAAH Activity Inhibiting Substance
# The compound dissolved in DMSO to have a concentration of 10 mM was dissolved in the substrate solution so as to have a varying concentration from 0.003 nM to 30 nM. According to the method mentioned above, the compound was analyzed for its influence on FAAH activity. As a negative control, DMSO was used. As a positive control, URB597 was added to the substrate solution to have a concentration of 10 μM. Based on the measured value of the positive control, 0%, and on the measured value of the negative control, 100%, the IC50 value of the test substance was obtained. Furthermore, Ex represents Example No. as denoted below.
row,Compound,IC50 [nM]
1,"O=C(Nc1cnccn1)N1CCN(C(=O)c2ccnc(OCCC3CCCCC3)c2)CC1 [Example 38, 4-[2-(2-cyclohexylethoxy)isonicotinoyl]-N-pyrazin-2-ylpiperazine-1-carboxamide]",0.7
2,O=C(Nc1ncccn1)N1CCN(C(=O)c2cccc(OCCC3CCCCC3)c2)CC1 [Example 155],0.54
3,O=C(Nc1cnccn1)N1CCN(C(=O)c2cccc(OCCC3CCCCC3)c2)CC1 [Example 210],0.16
4,COCC(=O)NC(=O)N1CCN(Cc2cccc(OCCC3CCCCC3)c2)CC1 [Example 439],0.43

# Further compounds by falling IC50, results first:
row,IC50 [nM],Compound
1,0.28,"O=C(Nc1cccnc1)N1CCN(Cc2ccnc(OCCC3CCCCC3)c2)CC1 [Example 30, 4-{[2-(2-cyclohexylethoxy)pyridin-4-yl]methyl}-N-pyridin-3-ylpiperazine-1-carboxamide trihydrochloride]"
2,0.18,CN(CCC1CCCCC1)c1ccc(C(=O)N2CCN(C(=O)Nc3cccnc3)CC2)cc1 [Example 334]
